Experimental data taken from patent publication US20230399312A1, “SUBSTITUTED PYRIMIDINES AND METHODS OF USE” (THERAVANCE BIOPHARMA R&D IP, LLC, priority 2020, published 2023).

Key:
[1] = biological target: T1, recombinant human ALK5 (TGF-βR1) protein (Homo sapiens, UniProt P36897); assay: Biochemical ALK5 (TGF-βR1) assay to measure pKi (LANCE Ultra ULight kinase assay); conditions: apparent pKi, converted from pIC50 by Cheng-Prusoff
T1 construct: purchased Life Technologies PR9075A
T1 sequence (P36897 34-503): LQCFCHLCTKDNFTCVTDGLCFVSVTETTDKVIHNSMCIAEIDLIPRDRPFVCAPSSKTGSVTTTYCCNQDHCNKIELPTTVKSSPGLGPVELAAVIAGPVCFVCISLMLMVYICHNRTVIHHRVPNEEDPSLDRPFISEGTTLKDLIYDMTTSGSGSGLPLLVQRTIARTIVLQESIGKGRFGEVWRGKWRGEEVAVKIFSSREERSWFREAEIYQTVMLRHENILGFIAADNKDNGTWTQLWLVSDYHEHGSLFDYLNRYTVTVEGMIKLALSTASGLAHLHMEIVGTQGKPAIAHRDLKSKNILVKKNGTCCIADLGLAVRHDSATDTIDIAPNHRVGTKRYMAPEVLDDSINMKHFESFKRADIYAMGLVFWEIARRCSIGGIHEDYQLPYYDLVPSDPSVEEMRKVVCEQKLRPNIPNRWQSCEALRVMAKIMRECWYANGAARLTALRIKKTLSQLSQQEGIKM
Method: The assays were performed in a 384-well plate (24 columns×16 wells/rows). An Echo®550 Liquid Handler (Labcyte) was used to prepare various intermediate concentrations of compounds of the present disclosure in 100% DMSO. From the intermediate concentrations, a range of concentrations (from […] to 25 μM corresponding to volumes up to 105 nL) were prepared and ejected into a final assay plate to be used to create individual dose response curves for each of the subject compounds. To a separate column within the assay plate, 105 nL of DMSO in each well was used to establish a maximum assay signal. Additionally, 105 nL of 100 μM SD-208, a selective TGF-βR1 inhibitor (Catalog #S7624, Selleck Chemicals), was used in another column of wells to establish a minimal assay signal.
With a multidrop dispenser, 8 μL of enzyme mixture (1.25× final) was added to each well. […] The plate was then sealed with an adhesive seal and allowed to equilibrate for 60 minutes at room temperature.
Next, 2 μL of 125 μM ATP (5×final, 125 μM ATP prepared in assay buffer with 2 mM DTT) was added to the incubated mixtures, covered with a MicroClime® Environmental Lid (Product No. LLS-0310, Labcyte) and immediately transferred to 37° C. The reactions were allowed to proceed at 37° C. for 60 minutes before terminating with the addition of 10 μL of detection antibody (LANCE® (lanthanide chelate excite) Ultra Europium-anti-phospo-DNA Topoisomerase 2-alpha (Thr1342)) in detection mixture (12 mM EDTA, 4 nM detection antibody prepared in detection buffer (50 mM Tris-HCl, 150 mM NaCl, 0.5% BSA (Fraction V), pH 7.0)) at room temperature. The plate was then read on a Perkin Elmer EnVision Plate Reader using europium specific reader settings with excitation and emission wavelengths set to 320 or 340 nm and 665 nm, respectively.
For dose-response analyses, percent inhibition versus compound concentrations were plotted, and pIC50 values were determined from a 4-parameter robust fit model with GraphPad Prism V5 Software (GraphPad Software, Inc., La Jolla, CA). This model obtains pIC50 values by fitting the sigmoidal dose-response (variable slope) equation to the data. Results were expressed as pIC50 (negative logarithm of IC50) and subsequently converted to pKi (negative logarithm of dissociate constant, Ki) using the Cheng-Prusoff equation. The higher the value of pKi (lower value of Ki), the greater the inhibition of ALK5 activity.

[2] = system: TGF-β-stimulated SMAD3 phosphorylation in BEAS-2B cells; assay: Cellular ALK5 potency assay, inhibition of TGF-β stimulated pSMAD3 formation in BEAS-2B cells; type: cell-based; conditions: Homo sapiens, pSMAD3, TGF-β 10 ng/mL, read-out: BEAS2B pIC50 (converted)
Method: The potency of compounds of the present disclosure for inhibition of TGF-β-stimulated SMAD3 phosphorylation was measured in BEAS-2B cells, a human lung epithelial cell line. TGF-β signals through activin receptor-like kinase 5 (ALK5) immediately prior to SMAD3 phosphorylation.
BEAS-2B cells were grown using 50% DMEM (Life Technologies) and 50% F-12 (Life Technologies) media, supplemented with 10% Fetal Bovine Serum (ATCC), 25 mM HEPES (Life Technologies), and 1×Pen-Strep (Life Technologies). Cells were cultured in a humidified incubator set at 37° C., 5% CO2, and trypsonized using 0.25% Trypsin with 0.5% polyvinylpyrrolidone (PVP).
For the assay, BEAS-2B cells were seeded at 7,500 cells/well (25 μL/well) in a 384-well plate and cultured overnight. Before dosing, growth media was aspirated and the wells were rinsed with HBSS Buffer (HBSS with Calcium and Magnesium, Life Technologies) supplemented with 25 mM HEPES (Life Technologies) and 1% Bovine Serum Albumin (Roche). Compounds were serially diluted in DMSO, then further diluted with supplemented HBSS Buffer (50 μL/well) to create a compound plate 3× of the final assay concentration, at 0.3% DMSO. The diluted compounds were then added to the cells (8 μL/well) and incubated at 37° C., 5% CO2 for 1 hour. After the compound incubation, TGF-β (R&D Systems) reconstituted in supplemented HBSS Buffer was added to the cells ([…], final concentration 10 ng/mL) and incubated for a further 30 minutes, after which the cells were immediately lysed with AlphaLISA lysis buffer (PerkinElmer). AlphaLISA Acceptor and Detector beads (PerkinElmer) were added 2 hours apart, then incubated overnight to be read the next day. The potency of the compound was determined through analysis of dose-dependent quantified changes in pSMAD3 signal from baseline (non-compound treated TGF-β stimulated cells). Data are expressed as pIC50 (negative decadic logarithm IC50) values.

| Ki [1] [nM] | Compound | IC50 [2] [nM] |
| --- | --- | --- |
| 0.0398 to 0.316 | CC[C@H](C)OC(=O)C1CN(Cc2ccc(Nc3nccc(Nc4ccnc(-c5cccc(C)n5)n4)n3)cc2)CCN1 (mixture of isomers) [Compound 382, [rac-(1S)-1-methylpropyl] 4-[[4-[[4-[[2-(6-methyl-2-pyridyl)pyrimidin-4-yl]amino]pyrimidin-2-yl]amino]phenyl]methyl] piperazine-2-carboxylate] | 25.1 to 158 |
| 0.0398 to 0.316 | Cc1cccc(-c2nccc(Nc3ccnc(Nc4ccc(CN5CCCC(C(=O)NC6CCNC6)C5)cc4)n3)n2)n1 (racemic) [Compound 456, 1-[[4-[[4-[[2-(6-methyl-2-pyridyl)pyrimidin-4-yl]amino]pyrimidin-2-yl]amino]phenyl]methyl]-N-[rac-(3R)-pyrrolidin-3-yl]piperidine-3-carboxamide] | 25.1 to 158 |
| 0.0398 to 0.316 | CC[C@@H](C)OC(=O)Cc1cc(Nc2nccc(Nc3ccnc(-c4cccc(C)n4)n3)n2)ccc1N1CCNCC1 [Compound 13, (R)-sec-butyl 2-(5-((4-((2-(6-methylpyridin-2-yl)pyrimidin-4-yl)amino)pyrimidin-2-yl)amino)-2-(piperazin-1-yl)phenyl)acetate] | 25.1 to 158 |
| 0.0398 to 0.316 | Cc1cccc(-c2nccc(Nc3ccnc(Nc4ccc(NC(=O)C5CCNCC5)cc4)n3)n2)n1 [Compound 14, N-(4-((4-((2-(6-methylpyridin-2-yl)pyrimidin-4-yl)amino)pyrimidin-2-yl)amino)phenyl)piperidine-4-carboxamide] | ≤ 20 |
| 0.0398 to 0.316 | Cc1cccc(-c2nccc(Nc3ccnc(Nc4ccc(N5CC6(CNC6)C5)cc4)n3)n2)n1 [Compound 15, N2-[4-(2,6-diazaspiro[3.3]heptan-2-yl)phenyl]-N4-[2-(6-methyl-2-pyridyl)pyrimidin-4-yl]pyrimidine-2,4-diamine] | 25.1 to 158 |
| 0.398 to 3.16 | Cc1ccc(O)cc1-c1nccc(Nc2ccnc(Nc3ccc(N4CCC(N(C)C)CC4)cc3)n2)n1 [Compound 16, 3-[4-[[2-[4-[4-(dimethylamino)-1-piperidyl]anilino]pyrimidin-4-yl]amino]pyrimidin-2-yl]-4-methyl-phenol] | 25.1 to 158 |
| 0.0398 to 0.316 | Cc1cccc(-c2nccc(Nc3ccnc(Nc4ccc(CN5CCC(C(=O)OC6CNC6)CC5)cc4)n3)n2)n1 [Compound 17, azetidin-3-yl 1-[[4-[[4-[[2-(6-methyl-2-pyridyl)pyrimidin-4-yl]amino]pyrimidin-2-yl]amino]phenyl]methyl] piperidine-4-carboxylate] | 25.1 to 158 |

Continued, compound first:

| Compound | Ki [1] [nM] | IC50 [2] [nM] |
| --- | --- | --- |
| Cc1cccc(-c2nccc(Nc3ccnc(Nc4ccc(N[C@H]5CCNC5)cc4)n3)n2)n1 [Compound 1, N4-[2-(6-methyl-2-pyridyl)pyrimidin-4-yl]-N2-[4-[[(3S)-pyrrolidin-3-yl]amino]phenyl]pyrimidine-2,4-diamine] | 0.0398 to 0.316 | 25.1 to 158 |
| Cc1cccc(-c2nccc(Nc3ccnc(Nc4cc(F)c(C(=O)N5CCNCC5)c(Cl)c4)n3)n2)n1 [Compound 2, [2-chloro-6-fluoro-4-[[4-[[2-(6-methyl-2-pyridyl)pyrimidin-4-yl]amino]pyrimidin-2-yl]amino]phenyl]-piperazin-1-yl-methanone] | 0.398 to 3.16 | 25.1 to 158 |
| CC(=O)N1CC(CNc2ccc(Nc3nccc(Nc4ccnc(-c5cccc(C)n5)n4)n3)cc2)C1 [Compound 3, 1-[3-[[4-[[4-[[2-(6-methyl-2-pyridyl)pyrimidin-4-yl]amino]pyrimidin-2-yl]amino]anilino]methyl]azetidin-1-yl]ethanone] | 0.398 to 3.16 | 25.1 to 158 |
| Cc1cccc(-c2nccc(Nc3ccnc(Nc4ccc(N5CCC(N6CCN(C)CC6)CC5)cc4)n3)n2)n1 [Compound 4, N2-[4-[4-(4-methylpiperazin-1-yl)-1-piperidyl]phenyl]-N4-[2-(6-methyl-2-pyridyl)pyrimidin-4-yl]pyrimidine-2,4-diamine] | 0.0398 to 0.316 | 25.1 to 158 |
| Cc1cccc(-c2nccc(Nc3ccnc(Nc4ccc(N)cc4)n3)n2)n1 [Compound 5, N2-(4-aminophenyl)-N4-[2-(6-methyl-2-pyridyl)pyrimidin-4-yl]pyrimidine-2,4-diamine] | 0.398 to 3.16 | ≤ 20 |
| COc1ccc(Nc2nccc(Nc3ccnc(-c4cccc(C)n4)n3)n2)cc1NC(=O)C1CCNCC1 [Compound 6, N-[2-methoxy-5-[[4-[[2-(6-methyl-2-pyridyl)pyrimidin-4-yl]amino]pyrimidin-2-yl]amino]phenyl]piperidine-4-carboxamide] | 0.0398 to 0.316 | 25.1 to 158 |
| Cc1cccc(-c2nccc(Nc3ccnc(Nc4ccc(N5CCSCC5)cc4)n3)n2)n1 [Compound 8, N4-[2-(6-methyl-2-pyridyl)pyrimidin-4-yl]-N2-(4-thiomorpholinophenyl) pyrimidine-2,4-diamine] | 0.0398 to 0.316 | 25.1 to 158 |
| CC[C@@H](C)OC(=O)CC1CNCCN1c1ccc(Nc2nccc(Nc3ccnc(-c4cccc(C)n4)n3)n2)cc1 (stereo partly drawn) [Compound 9, [(1R)-1-methylpropyl] 2-[1-[4-[[4-[[2-(6-methyl-2-pyridyl)pyrimidin-4-yl]amino]pyrimidin-2-yl]amino]phenyl]piperazin-2-yl]acetate] | 0.0398 to 0.316 | 25.1 to 158 |
| Cc1cccc(-c2nccc(Nc3ccnc(Nc4ccc(NC(=O)C5CCCNC5)cc4)n3)n2)n1 (stereo not drawn) [Compound 10, N-[4-[[4-[[2-(6-methyl-2-pyridyl)pyrimidin-4-yl]amino]pyrimidin-2-yl]amino]phenyl]piperidine-3-carboxamide] | 0.0398 to 0.316 | ≤ 20 |
| Cc1cccc(-c2nccc(Nc3ccnc(Nc4ccc(N5CCCC(C(=O)OC6CCNC6)C5)cc4)n3)n2)n1 (stereo not drawn) [Compound 11, pyrrolidin-3-yl 1-[4-[[4-[[2-(6-methyl-2-pyridyl)pyrimidin-4-yl]amino]pyrimidin-2-yl]amino]phenyl]piperidine-3-carboxylate] | 0.0398 to 0.316 | 200 to 1260 |
| CC(=O)N1CCN(S(=O)(=O)c2ccc(Nc3nccc(Nc4ccnc(-c5cccc(C)n5)n4)n3)cc2)CC1 [Compound 12, 1-[4-[4-[[4-[[2-(6-methyl-2-pyridyl)pyrimidin-4-yl]amino]pyrimidin-2-yl]amino]phenyl]sulfonylpiperazin-1-yl]ethanone] | 0.0398 to 0.316 | 25.1 to 158 |
